# Test results from ChEMBL document CHEMBL3046894, “Synthesis and Herbicidal Activity of Pyrimidinyl Salicylic and Thiosalicylic Acids” (J Pestic Sci, 1996).
# Activity calls are given as the source filed them. The calls are words filed in the database; no cut-off is given here.
# Assays:
# Cyperus iria [1] = experiment: Post-emergence herbicidal activity against Cyperus iria assessed as growth inhibition at 25 g a.i/10 a applied 11 days after germination as foliar spray; format: functional, organism-based
# Echinochloa crus-galli [2] = experiment: Post-emergence herbicidal activity against Echinochloa crus-galli (barnyard grass) assessed as mortality per 10 acre; format: functional
# Xanthium strumarium [3] = experiment: Pre-emergence herbicidal activity against Xanthium strumarium (cocklebur) assessed as mortality at 6.3 g a.i/10 a; format: functional
# Zea mays [4] = experiment: Post-emergence phytotoxicity against Zea mays (maize) assessed as mortality at 1.6 g a.i/10 a applied 11 days after germination as foliar spray; format: organism-based; details: in vivo, other, 264 h
# Ipomoea lacunosa [5] = experiment: Post-emergence herbicidal activity against Ipomoea lacunosa assessed as mortality per 10 acre; format: functional
# Zea mays [6] = experiment: (§1) Pre-emergence phytotoxicity against Zea mays (maize) assessed as mortality at 1.6 g a.i/10 a; format: organism-based; details: in vivo, other
# Glycine max [7] = experiment: Post-emergence phytotoxicity against Glycine max (soybean) assessed as mortality at 6.3 g a.i/10 a applied 11 days after germination as foliar spray; format: organism-based; details: in vivo, other, 264 h
# Amaranthus retroflexus [8] = experiment: Pre-emergence herbicidal activity against Amaranthus retroflexus assessed as mortality per 10 acre; format: functional
# Abutilon theophrasti [9] = experiment: Pre-emergence herbicidal activity against Abutilon theophrasti (velvetleaf) assessed as mortality at 6.3 g a.i/10 a; format: functional; details: Abutilon theophrasti, pre-emergence
# Gossypium hirsutum [10] = experiment: (§2) Post-emergence phytotoxicity against Gossypium hirsutum (cotton) assessed as mortality at 6.3 g a.i/10 a applied 11 days after germination as foliar spray; format: organism-based; details: in vivo, other, 264 h
# Digitaria sanguinalis [11] = experiment: Post-emergence herbicidal activity against Digitaria sanguinalis (hairy crabgrass) assessed as growth inhibition at 25 g a.i/10 a applied 11 days after germination as foliar spray; format: functional, organism-based
# Ipomoea lacunosa [12] = experiment: Pre-emergence herbicidal activity against Ipomoea lacunosa assessed as mortality at 6.3 g a.i/10 a; format: functional; details: Ipomoea lacunosa, pre-emergence
# Gossypium hirsutum [13] = experiment: (§3) Pre-emergence phytotoxicity against Gossypium hirsutum (cotton) assessed as mortality at 6.3 g a.i/10 a; format: organism-based; details: in vivo, other
# Glycine max [14] = experiment: (§4) Pre-emergence phytotoxicity against Glycine max (soybean) assessed as mortality at 6.3 g a.i/10 a; format: organism-based; details: in vivo, other
# Digitaria sanguinalis [15] = experiment: Pre-emergence herbicidal activity against Digitaria sanguinalis (hairy crabgrass) assessed as growth inhibition at 25 g a.i/10 a; format: functional, organism-based
# Cyperus iria [16] = experiment: Pre-emergence herbicidal activity against Cyperus iria assessed as growth inhibition at 25 g a.i/10 a; format: functional, organism-based
# Amaranthus retroflexus [17] = experiment: Post-emergence herbicidal activity against Amaranthus retroflexus assessed as growth inhibition at 25 g a.i/10 a applied 11 days after germination as foliar spray; format: functional, organism-based
# Persicaria nodosa [18] = experiment: Pre-emergence herbicidal activity against Persicaria nodosa assessed as growth inhibition at 25 g a.i/10 a; format: functional, organism-based
# Echinochloa crus-galli [19] = experiment: Post-emergence herbicidal activity against Echinochloa crus-galli (barnyard grass) assessed as growth inhibition at 25 g a.i/10 a applied 11 days after germination as foliar spray; format: functional, organism-based
# Glycine max [20] = experiment: (§5) Pre-emergence phytotoxicity against Glycine max (soybean) assessed as mortality at 1.6 g a.i/10 a; format: organism-based; details: in vivo, other
# Ipomoea lacunosa [21] = experiment: Pre-emergence herbicidal activity against Ipomoea lacunosa assessed as mortality at 1.6 g a.i/10 a; format: functional
# Gossypium hirsutum [22] = experiment: Post-emergence phytotoxicity against Gossypium hirsutum (cotton) assessed as mortality at 1.6 g a.i/10 a applied 11 days after germination as foliar spray; format: organism-based; details: in vivo, other, 264 h
# Zea mays [23] = experiment: Pre-emergence phytotoxicity against Zea mays (maize) assessed as mortality at 6.3 g a.i/10 a; format: organism-based; details: in vivo, other
# Persicaria nodosa [24] = experiment: Post-emergence herbicidal activity against Persicaria nodosa assessed as mortality per 10 acre; format: functional
# Xanthium strumarium [25] = experiment: Post-emergence herbicidal activity against Xanthium strumarium (cocklebur) assessed as mortality per 10 acre; format: functional
# Abutilon theophrasti [26] = experiment: Post-emergence herbicidal activity against Abutilon theophrasti (velvetleaf) assessed as mortality at 1.6 g a.i/10 a applied 11 days after germination as foliar spray; format: functional; details: 264 h
# Ipomoea lacunosa [27] = experiment: Pre-emergence herbicidal activity against Ipomoea lacunosa assessed as mortality per 10 acre; format: functional
# Chenopodium album [28] = experiment: Pre-emergence herbicidal activity against Chenopodium album assessed as growth inhibition at 25 g a.i/10 a; format: functional, organism-based
# Xanthium strumarium [29] = experiment: Pre-emergence herbicidal activity against Xanthium strumarium (cocklebur) assessed as mortality per 10 acre; format: functional
# Persicaria nodosa [30] = experiment: Pre-emergence herbicidal activity against Persicaria nodosa assessed as mortality per 10 acre; format: functional
# Ipomoea lacunosa [31] = experiment: Post-emergence herbicidal activity against Ipomoea lacunosa assessed as mortality at 1.6 g a.i/10 a applied 11 days after germination as foliar spray; format: functional; details: 264 h
# Chenopodium album [32] = experiment: Post-emergence herbicidal activity against Chenopodium album assessed as growth inhibition at 25 g a.i/10 a applied 11 days after germination as foliar spray; format: functional, organism-based
# Amaranthus retroflexus [33] = experiment: Post-emergence herbicidal activity against Amaranthus retroflexus assessed as mortality per 10 acre; format: functional
# Gossypium hirsutum [34] = experiment: Pre-emergence phytotoxicity against Gossypium hirsutum (cotton) assessed as mortality per 10 acre; format: organism-based; details: in vivo
# Echinochloa crus-galli [35] = experiment: Pre-emergence herbicidal activity against Echinochloa crus-galli (barnyard grass) assessed as mortality per 10 acre; format: functional
# Glycine max [36] = experiment: Post-emergence phytotoxicity against Glycine max (soybean) assessed as mortality at 1.6 g a.i/10 a applied 11 days after germination as foliar spray; format: organism-based; details: in vivo, other, 264 h
# Abutilon theophrasti [37] = experiment: Pre-emergence herbicidal activity against Abutilon theophrasti (velvetleaf) assessed as mortality at 1.6 g a.i/10 a; format: functional
# Xanthium strumarium [38] = experiment: Post-emergence herbicidal activity against Xanthium strumarium (cocklebur) assessed as mortality at 1.6 g a.i/10 a applied 11 days after germination as foliar spray; format: functional; details: 264 h
# Gossypium hirsutum [39] = experiment: Post-emergence phytotoxicity against Gossypium hirsutum (cotton) assessed as mortality per 10 acre; format: organism-based; details: in vivo
# Amaranthus retroflexus [40] = experiment: Pre-emergence herbicidal activity against Amaranthus retroflexus assessed as growth inhibition at 25 g a.i/10 a; format: functional, organism-based
# Gossypium hirsutum [41] = experiment: Pre-emergence phytotoxicity against Gossypium hirsutum (cotton) assessed as mortality at 1.6 g a.i/10 a; format: organism-based; details: in vivo, other
# Echinochloa crus-galli [42] = experiment: Pre-emergence herbicidal activity against Echinochloa crus-galli (barnyard grass) assessed as growth inhibition at 25 g a.i/10 a; format: functional, organism-based
# Persicaria nodosa [43] = experiment: Post-emergence herbicidal activity against Persicaria nodosa assessed as growth inhibition at 25 g a.i/10 a applied 11 days after germination as foliar spray; format: functional, organism-based
# Xanthium strumarium [44] = experiment: Pre-emergence herbicidal activity against Xanthium strumarium (cocklebur) assessed as mortality at 1.6 g a.i/10 a; format: functional
# Echinochloa crus-galli [45] = experiment: Post-emergence herbicidal activity against Echinochloa crus-galli (barnyard grass) assessed as mortality at 1.6 g a.i/10 a applied 11 days after germination as foliar spray; format: functional; details: 264 h
# [46] = as §1; format: organism-based; details: in vivo, 1.6 g a.i/10 a, read-out: Activity
# Zea mays [47] = experiment: Post-emergence phytotoxicity against Zea mays (maize) assessed as mortality at 6.3 g a.i/10 a applied 11 days after germination as foliar spray; format: organism-based; details: in vivo, other, 264 h
# [48] = as §3; format: organism-based; details: in vivo, 6.3 g a.i/10 a, read-out: Activity
# [49] = as §4; format: organism-based; details: in vivo, 6.3 g a.i/10 a, read-out: Activity
# [50] = as §5; format: organism-based; details: in vivo, 1.6 g a.i/10 a, read-out: Activity
# Echinochloa crus-galli [51] = experiment: Post-emergence herbicidal activity against Echinochloa crus-galli (barnyard grass) assessed as mortality at 6.3 g a.i/10 a applied 11 days after germination as foliar spray; format: functional; details: 264 h
# Abutilon theophrasti [52] = experiment: Post-emergence herbicidal activity against Abutilon theophrasti (velvetleaf) assessed as mortality at 6.3 g a.i/10 a applied 11 days after germination as foliar spray; format: functional; details: 264 h
# [53] = as §2; format: organism-based; details: in vivo, 6.3 g a.i/10 a
# Ipomoea lacunosa [54] = experiment: Post-emergence herbicidal activity against Ipomoea lacunosa assessed as mortality at 6.3 g a.i/10 a applied 11 days after germination as foliar spray; format: functional; details: 264 h
# [55] = Xanthium strumarium, pre-emergence
structure (smiles),measurement,setting,value
COc1cc(OC)nc(Oc2ccccc2C(=O)O)n1,growth inhibition (GI),Cyperus iria [1],Active
same,ED90,Echinochloa crus-galli [2],50 gAi
same,mortality at 63 g/ha,Xanthium strumarium [3]; [55],< 5%
same,Activity,Zea mays [4],Toxic
same,ED90,Ipomoea lacunosa [5],>100 gAi
same,Activity,Zea mays [6],Non-toxic
same,Activity,Glycine max [7],Toxic
same,ED90,Amaranthus retroflexus [8],Active
same,mortality at 63 g/ha,Abutilon theophrasti [9],< 5%
same,Activity,Gossypium hirsutum [10],Toxic
same,growth inhibition (GI),Digitaria sanguinalis [11],Active
same,mortality at 63 g/ha,Ipomoea lacunosa [12],< 5%
same,Activity,Gossypium hirsutum [13],Non-toxic
same,Activity,Glycine max [14],Non-toxic
same,growth inhibition (GI),Digitaria sanguinalis [15],Active
same,growth inhibition (GI),Cyperus iria [16],Active
same,growth inhibition (GI),Amaranthus retroflexus [17],Active
same,growth inhibition (GI),Persicaria nodosa [18],inactive
same,growth inhibition (GI),Echinochloa crus-galli [19],Active
same,Activity,Glycine max [20],Non-toxic
same,mortality at 16 g/ha,"Ipomoea lacunosa [21]; Ipomoea lacunosa, pre-emergence",< 5%
same,Activity,Gossypium hirsutum [22],Toxic
same,Activity,Zea mays [23],Toxic
same,ED90,Persicaria nodosa [24],12 gAi
same,ED90,Xanthium strumarium [25],>100 gAi
same,mortality at 16 g/ha,Abutilon theophrasti [26],< 5%
same,ED90,Ipomoea lacunosa [27],>100 gAi
same,growth inhibition (GI),Chenopodium album [28],Active
same,ED90,Xanthium strumarium [29],>100 gAi
same,ED90,Persicaria nodosa [30],12 gAi
same,mortality at 16 g/ha,Ipomoea lacunosa [31],< 5%
same,growth inhibition (GI),Chenopodium album [32],Active
same,ED90,Amaranthus retroflexus [33],12 gAi
same,ED20,Gossypium hirsutum [34],12 gAi
same,ED90,Echinochloa crus-galli [35],12 gAi
same,Activity,Glycine max [36],Toxic
same,mortality at 16 g/ha,"Abutilon theophrasti [37]; Abutilon theophrasti, pre-emergence",< 5%
same,mortality at 16 g/ha,Xanthium strumarium [38],< 5%
same,ED20,Gossypium hirsutum [39],12 gAi
same,growth inhibition (GI),Amaranthus retroflexus [40],Active
same,Activity,Gossypium hirsutum [41],Non-toxic
same,growth inhibition (GI),Echinochloa crus-galli [42],Active
same,growth inhibition (GI),Persicaria nodosa [43],Active
same,mortality at 16 g/ha,Xanthium strumarium [44]; [55],< 5%
CCSc1cccc(Sc2nc(OC)cc(OC)n2)c1C(=O)O,mortality at 16 g/ha,Echinochloa crus-galli [45],< 5%
same,Activity,Xanthium strumarium [3],<50%
same,Activity,Zea mays [4],Toxic
same,mortality,[46],< 50%
same,Activity,Glycine max [7],Toxic
same,Activity,Zea mays [47],Toxic
same,Activity,Gossypium hirsutum [10],Non-toxic
same,mortality,[48],< 50%
same,mortality,[49],< 50%
same,mortality,[50],< 50%
same,Activity,Ipomoea lacunosa [21],<50%
same,Activity,Gossypium hirsutum [22],Non-toxic
same,Activity,Zea mays [23],Non-toxic
same,mortality at 63 g/ha,Echinochloa crus-galli [51],< 5%
same,Activity,Glycine max [36],Toxic
same,Activity,Abutilon theophrasti [37],<50%
same,mortality at 63 g/ha,Abutilon theophrasti [52],> 90%
same,Activity,Gossypium hirsutum [41],< 50%
same,Activity,Xanthium strumarium [44],<50%
COc1cc(OC)nc(Sc2cccc(SC)c2C(=O)O)n1,mortality at 16 g/ha,Echinochloa crus-galli [45],< 5%
same,Activity,Zea mays [4],Toxic
same,Activity,Glycine max [7],Toxic
same,mortality at 264 h,[53],> 90%
same,Activity,Gossypium hirsutum [22],Non-toxic
same,mortality at 16 g/ha,Abutilon theophrasti [26],> 90%
same,mortality at 63 g/ha,Echinochloa crus-galli [51],< 5%
same,mortality at 63 g/ha,Ipomoea lacunosa [54],> 90%
same,Activity,Glycine max [36],Toxic
same,mortality at 63 g/ha,Abutilon theophrasti [52],> 90%
